Like-named read-outs stand apart in the source and are kept apart here.
Target: T1, human GAL3 receptor (Homo sapiens, UniProt O60755)
T1 construct: expressed in transfected cells
T1 sequence (O60755 1-368): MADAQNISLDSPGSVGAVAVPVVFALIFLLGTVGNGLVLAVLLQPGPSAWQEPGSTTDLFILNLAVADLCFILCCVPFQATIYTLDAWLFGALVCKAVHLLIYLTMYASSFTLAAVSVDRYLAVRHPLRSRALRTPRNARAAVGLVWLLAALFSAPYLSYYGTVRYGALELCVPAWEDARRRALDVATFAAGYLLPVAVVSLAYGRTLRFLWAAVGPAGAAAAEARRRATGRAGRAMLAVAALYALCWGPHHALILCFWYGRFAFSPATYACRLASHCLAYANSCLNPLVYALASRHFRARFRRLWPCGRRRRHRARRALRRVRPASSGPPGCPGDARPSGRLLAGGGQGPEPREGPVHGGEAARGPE
Test: Radioligand binding at cloned human GAL3 receptor
Settings: cloned human receptor, read-out: Ki GalR3
Experimental: The present invention provides for a method of determining the binding affinity of a GAL3 antagonist, wherein the GAL3 antagonist is dissolved in a "suitable solvent". A "suitable solvent" means one which permits the measurement of binding affinity of the GAL3 antagonist to the human GAL3 receptor at concentrations less than 1 µM, preferably less than 100 nM. Examples of solvents include, but are not limited to, DMSO, ethanol, N,N-dimethylacetamide, or water. For indolones, the preferred solvent is 3% DMSO (final concentration in the assay). For pyrimidines, the preferred solvent is 1% ethanol/0.09% polypuronic acid F-127 (final concentration in the assay). For any other type of compounds, the preferred solvent is the solvent which permits the measurement of binding affinity of a GAL3 antagonist at the lowest concentration. Once a suitable solvent is ascertained for the binding assay of the human GAL3 receptor, the same solvent is used in assays to determine the binding affinity at the GAL1 receptor, the serotonin transporter, the norepinephrine transporter, and the dopamine transporter. A solvent of 0.4% DMSO is used in the central monoamine oxidase enzyme assay.
The binding properties of the pyrimidines of the present invention were evaluated at the cloned human galanin receptors, GAL1, GAL2, and GAL3, using protocols described herein.
The binding properties of the indolones of the present invention were evaluated at the cloned human galanin receptors, GAL1, GAL2, and GAL3, using protocols described herein.
LM(tk-) cells were stably transfected with the human GAL1 or GAL3 receptor. CHO cells were stably transfected with the human GAL2 receptor.
cDNAs for the human and rat GAL1, and human and rat GAL3 receptors were transfected with a G-418 resistant gene into the mouse fibroblast LM(tk-) cell line by a calcium phosphate transfection method (Cullen, 1987). Stably transfected cells were selected with G-418. Human and rat GAL2 receptors were similarly transfected into CHO cells.
Membranes were harvested from stably transfected LM(tk-) cells. Adherent cells were washed twice in ice-cold phosphate buffered saline (138 mM NaCl, 8.1 mM Na2HPO4, 2.5 mM KCl, 1.2 mM KH2PO4, 0.9 mM CaCl2, 0.5 mM MgCl2, pH 7.4) and lysed by sonication in ice-cold sonication buffer (20 mM Tris-HCl, 5 mM EDTA, pH 7.7). Large particles and debris were cleared by low speed centrifugation (200 x g, 5 min, 4°C). Membranes were collected from the supernatant fraction by centrifugation (32,000 x g, 18 min, 4°C), washed with ice-cold hypotonic buffer, and collected again by centrifugation (32,000 x g, 18 min, 4°C). The final membrane pellet was resuspended by sonication into a small volume of ice-cold binding buffer (-1 ml for every 5 plates: 10 mM NaCl, 20 mM HEPES, 0.22 mM KH2PO4, 1.26 mM CaCl2, 0.81 mM MgSO4, pH 7.4). Protein concentration was measured by the Bradford method (Bradford, 1976) using Bio-Rad Reagent, with bovine serum albumin as a standard. Membranes were held on ice for up to one hour and used fresh, or flash frozen and stored in liquid nitrogen. Membranes were prepared similarly from CHO cells.
Galanin Recentors: Binding assays were performed according to the following published methods: human GAL3 (PCT International Publication No. WO 98/15570), human GAL1 (PCT International Publication No. WO 95/2260), human GAL2 (PCT International Publication No. WO 97/26853).
Binding data were analyzed using nonlinear regression and statistical techniques available in the GraphPAD Prism package (San Diego, CA). Enzymatic assay data were derived from a standard curve of reference compound data.

Structure (SMILES) | Ki (pyrimidines) [nM] | Ki (indolones) [nM]
CN(C)c1cc(NC2CCc3ccccc3C2)nc(N2CCN(Cc3ccccc3)CC2)n1 (stereo not drawn) [Example 173] | 117 | 
Cc1ccc(Nc2cc(N(C)C)nc(N3CCN(c4ccccn4)CC3)n2)c(Cl)c1 [Example 223] | 559 | 
CN(C)c1cc(Nc2ccc(Oc3ccccc3)cc2)nc(Nc2ccccc2)n1 [Example 64] | 572 | 
Cc1ccc(Nc2cc(N3CCCCC3)nc(N3CCc4ccccc43)n2)cc1 [Example 39] | 128 | 
CN(C)c1cc(Nc2ccc(Cc3ccccc3)cc2)nc(N2CCN(c3ccccn3)CC2)n1 [Example 188] | 27 | 
O=C1/C(=N\c2cccc(C(F)(F)F)c2)c2ccccc2N1c1ccc(-c2ccccc2)cc1 [Example 309, (3Z)-1-[1,1'-BIPHENYL]-4-YL-3-{[3-(TRIFLUOROMETHYL)PHENYL]IMINO}-1,3-DIHYDRO-2H-INDOL-2-ONE] |  | 224
CN(C)c1cc(NC2CCC(OCc3ccccc3)CC2)nc(N2CCN(Cc3ccccc3)CC2)n1 (stereo not drawn) [Example 152] | 172 | 
Cc1cccc(Nc2cc(N(C)C)nc(Nc3ccccc3)n2)c1 [Example 52] | 570 | 
CN(C)c1cc(Nc2ccccc2Cc2ccccc2)nc(N2CCN(c3ccccn3)CC2)n1 [Example 186] | 69 | 
Cc1ccc(Nc2cc(N(C)C)nc(NCCc3ccccc3)n2)cc1 [Example 250] | 119 | 
CN(C)c1cc(Nc2ccc(C(C)(C)C)cc2)nc(Nc2ccccc2)n1 [Example 63] | 731 | 
Cc1ccc(Nc2cc(N(C)C)nc(N3CCN(c4ccc(O)cc4)CC3)n2)cc1 [Example 116] | 479 | 
COc1cccc(Nc2cc(N(C)C)nc(NCCc3ccccc3)n2)c1 [Example 247] | 195 | 
CN(C)c1cc(Nc2ccc(C(F)(F)F)cc2Cl)nc(N2CCN(Cc3ccccc3)CC2)n1 [Example 244] | 55 | 
O=C1C(=Nc2ccc3[nH]ccc3c2)c2ccccc2N1c1ccccc1 (mixture of isomers) [Example 112, 3-(1H-INDOL-5-YLIMINO)-1-PHENYL-1,3-DIHYDRO-2H-INDOL-2-ONE] |  | 2320
CN(C)c1cc(Nc2ccc(F)c(F)c2F)nc(N2CCN(c3ccccn3)CC2)n1 [Example 198] | 560 | 
COc1cc(Nc2cc(N(C)C)nc(N3CCN(c4ccccn4)CC3)n2)cc(OC)c1 [Example 202] | 740 | 
CN(C)c1cc(Nc2ccc3ccccc3c2)nc(Nc2ccccc2)n1 [Example 65] | 329 | 
COc1cccc(CN2CCN(c3nc(Nc4cccc(OC)c4)cc(N(C)C)n3)CC2)c1 [Example 148] | 276 | 
COc1cccc(Nc2cc(N(C)C)nc(N3CCN(c4ccccn4)CC3)n2)c1 [Example 245] | 537 | 
Cc1noc(C)c1CN1C(=O)/C(=N\c2cccc(C(F)(F)F)c2)c2ccccc21 [Example 275] |  | 595
O=C1/C(=N\c2ccc(F)c(F)c2)c2ccccc2N1Cc1ccccn1 [Example 278] |  | 340
CN(C)c1cc(Nc2ccccc2)nc(Nc2ccccc2)n1 [Example 50] | 699 | 
O=C1C(=Nc2cccc(C(F)(F)F)c2)c2ccccc2N1c1ccsc1 (mixture of isomers) [Example 109, 1-(3-THIENYL)-3-{[3-(TRIFLUOROMETHYL)PHENYL]IMINO}-1,3-DIHYDRO-2H-INDOL-2-ONE] |  | 103

Structure (SMILES) | Ki (pyrimidines) [nM] | Ki (indolones) [nM]
O=C1/C(=N\c2ccc3ncsc3c2)c2ccccc2N1c1ccccc1 [Example 299, (3Z)-3-(1,3-BENZOTHIAZOL-6-YLIMINO)-1-PHENYL-1,3-DIHYDRO-2H-INDOL-2-ONE] |  | 377
CN(C)c1cc(Nc2cccc(I)c2)nc(N2CCN(c3ccccn3)CC2)n1 [Example 193] | 244 | 
CN(C)c1cc(NC2CCC(C(C)(C)C)CC2)nc(N2CCN(Cc3ccccc3)CC2)n1 (stereo not drawn) [Example 169] | 77 | 
CCOC(=O)c1cccc(/N=C2\C(=O)N(c3ccsc3)c3ccccc32)c1 [Example 266, ETHYL 3-{[(3Z)-2-OXO-1-(3-THIENYL)-1,2-DIHYDRO-3H-INDOL-3-YLIDENE]AMINO}BENZOATE] |  | 236
Cc1ccc(Nc2cc(N(C)C)nc(NCCc3cccs3)n2)cc1 [Example 237] | 404 | 
CN(C)c1cc(Nc2cccc(F)c2)nc(Nc2ccccc2)n1 [Example 57] | 360 | 
Cc1cc(/N=C2\C(=O)N(c3ccsc3)c3ccccc32)ccc1Cl [Example 259] |  | 55
O=C1/C(=N\c2ccc(F)c(F)c2)c2ccccc2N1c1ccccc1 [Example 285, (3Z)-3-[(3,4-DIFLUOROPHENYL)IMINO]-1-PHENYL-1,3-DIHYDRO-2H-INDOL-2-ONE] |  | 26
COc1cccc(Nc2cc(N(C)C)nc(N3CCN(CC4CCCO4)CC3)n2)c1 (stereo not drawn) [Example 233] | 869 | 
Cc1ccc(Nc2nc(Nc3cccc(C)c3)cc(N(C)C)n2)cc1 [Example 53] | 980 | 
COc1ccc2c(c1)N(c1ccccc1)C(=O)/C2=N\c1ccc(Cl)c(Cl)c1 [Example 258, (3Z)-3-[(3,4-DICHLOROPHENYL)IMINO]-6-METHOXY-1-PHENYL-1,3-DIHYDRO-2H-INDOL-2-ONE] |  | 67
CCCCCCCCc1ccc(Nc2cc(N(C)C)nc(N3CCN(c4ccccn4)CC3)n2)cc1 [Example 192] | 18 | 
CN(C)c1cc(Nc2ccc(Br)cc2)nc(Nc2ccccc2)n1 [Example 59] | 566 | 
O=C1C(=Nc2cccc(C(F)(F)F)c2)c2ccccc2N1Cc1ccc(Cl)s1 (mixture of isomers) [Example 108, 1-[(5-CHLORO-2-THIENYL)METHYL]-3-{[3-(TRIFLUOROMETHYL)PHENYL]IMINO}-1,3-DIHYDRO-2H-INDOL-2-ONE] |  | 84
Cc1cc(C)cc(Nc2cc(N(C)C)nc(N3CCN(c4ccccn4)CC3)n2)c1 [Example 214] | 676 | 
CN(C)c1cc(Nc2ccc3c(c2)CCC3)nc(N2CCN(c3ccccn3)CC2)n1 [Example 123] | 61 | 
COCCN(CCOC)c1nc(Nc2ccc(C)cc2)cc(N2CCCCC2)n1 [Example 45] | 505 | 
CN(C)c1cc(Nc2ccc(C(F)(F)F)cc2Cl)nc(N2CCN(c3ccccn3)CC2)n1 [Example 136] | 25 | 
O=C1/C(=N\c2cccc(C(F)(F)F)c2)c2ccccc2N1c1ccc(O)cc1 [Example 310, (3Z)-1-(4-HYDROXYPHENYL)-3-{[3-(TRIFLUOROMETHYL)PHENYL]IMINO}-1,3-DIHYDRO-2H-INDOL-2-ONE] |  | 126
O=C1/C(=N\c2cc(F)cc(F)c2)c2ccccc2N1c1ccsc1 [Example 264, (3Z)-3-[(3,5-DIFLUOROPHENYL)IMINO]-1-(3-THIENYL)-1,3-DIHYDRO-2H-INDOL-2-ONE] |  | 27
CCC(C)c1ccc(Nc2cc(N(C)C)nc(N3CCN(c4ccccn4)CC3)n2)cc1 (stereo not drawn) [Example 211] | 58 | 
COc1ccc(/N=C2\C(=O)N(c3ccccc3)c3ccccc32)c(OC)c1 [Example 287, (3Z)-3-[(2,4-DIMETHOXYPHENYL)IMINO]-1-PHENYL-1,3-DIHYDRO-2H-INDOL-2-ONE] |  | 260
CN(C)c1cc(Nc2ccc(F)cc2)nc(N2CCN(Cc3ccccc3)CC2)n1 [Example 156] | 61 | 
O=C1/C(=N\c2ccc(Cl)cc2)c2ccccc2N1c1ccsc1 [Example 261, (3Z)-3-[(4-CHLOROPHENYL)IMINO]-1-(3-THIENYL)-1,3-DIHYDRO-2H-INDOL-2-ONE] |  | 34
